From EP4177246A1, “FUSED OXAZEPINES AS INHIBITORS OF PEROXIREDOXINS” (Centro Atlántico del Medicamento, SA, priority 2021, dated 2023)

Experiments:
K562 = assay: MTT cell viability assay, K562 cells; format: cell-based; conditions: Homo sapiens, 48 h drug exposure
Description: K562 [American Type Culture Collection (ATCC) reference number CCL-243]. This a human cancer cell line derived from the bone marrow of a person with CML.
(§1) Cell viability was assayed by measuring the mitochondrial reduction of the tetrazolium salt 3-(4,5-methyltiazol-2yl)-2,5diphenyl-tetrazolium bromide] (MTT) (Applichen; A2231,0010) [Mosmann T. J Immunol Methods. 1983 16;65(1-2):55-63 (ref. 36); Chuan Y-C et al 2010. Oncogene. 29 (10), 1531-1542 (ref. 37)]. Cells were seeded in 96-well plates in medium (either RPMI, DMEM or McCoys depending on the recommendations from the ATCC) supplemented with 10% FBS (Lonza Cat. N°: 14-502F), 2mM L-Glut (Lonza Cat. N°: BE17-605E) and 100U/ml PEST (Lonza Cat. N°: DE17-605E) at a cell density of 1000-5000 cells/well (96 well plate). Cells were seeded at a density according to their exponential growth phase (normally 1000 to 5000/well). The cells were cultured at 37 °C in the dark in air containing 5% CO2. After 24h either vehicle (0.05% DMSO) or drug were added to culture medium at the indicated concentrations (10 to 0,01microM). After another 48 h, MTT (0.3 mg/ml) was added to cells, followed by incubation for 2-4h at 37 °C in the dark. The medium was then removed and the precipitated formazan was solubilized by the addition of DMSO (200 µL).
(§2) The optical density was measured at 595 nm with the iMark Microplate Reader (BioRad, USA). Data was expressed as percent growth above the level in controls and the results in figures were plotted as means ± SEM of each test point from 3 replicates.
(§3) Statistical analysis. The concentration of drug that provokes 50% reduction of cell viability (IC50) was determined by using non-linear regression analysis and data were fitted to a log concentration vs normalized response curve in GraphPad software v5 (San Diego, CA).

HEL 92.1.7 = assay: MTT cell viability assay, HEL cells; format: cell-based; conditions: Homo sapiens, 48 h drug exposure
Description: HEL 92.1.7 [American Type Culture Collection (ATCC) reference number TIB-180]. This a human cancer cell line derived from the bone marrow of a person with erythroleukemia, which is a form of AML.
as §1, §2, §3

MDA-MB-231 = assay: MTT cell viability assay, MDA-MB-231 cells; format: cell-based, human; conditions: Homo sapiens, 48 h drug exposure
Description: MDA-MB-231 [American Type Culture Collection (ATCC) reference number HTB-26]. This a human breast cancer cell line derived from a metastatic site from a person.
as §1, §2, §3

PANC-1 = assay: MTT cell viability assay, PANC-1 cells; format: cell-based; conditions: Homo sapiens, 48 h drug exposure
Description: PANC-1 [American Type Culture Collection (ATCC) reference number CRL-1469]. This a human cancer cell line derived from the pancreas of a person.
as §1, §2, §3

MCF-7 = assay: MTT cell viability assay, MCF-7 cells; format: cell-based; conditions: Homo sapiens, MCF7, 48 h drug exposure
Description: as §1, §2, §3

DU-145 = assay: MTT cell viability assay, DU-145 cells; format: cell-based; conditions: Homo sapiens, 48 h drug exposure
Description: DU-145 [American Type Culture Collection (ATCC) reference number HTB-81]. This a human prostate cancer cell line derived from a metastatic site (brain) of a person.
as §1, §2, §3

SMILES	IC50 (K562)	IC50 (HEL 92.1.7)	IC50 (MDA-MB-231)	IC50 (PANC-1)	IC50 (MCF-7)	IC50 (DU-145)
O=C1C2=C(C(=O)c3ccccc31)N(c1ccccc1)Cc1ccccc1O2 [Compound 1, 12-phenyl-12,13-dihydrobenzo[f]naphtho[2,3-b][1,4]oxazepine-6,11-dione]	0.98 µM	0.45 µM	1.59 µM	–	–	–
O=C1C2=C(C(=O)c3ccccc31)N(c1cccnc1)Cc1ccccc1O2 [Compound 4, 12-(pyridin-3-yl)-12,13-dihydrobenzo[f]naphtho[2,3-b][1,4]oxazepine-6,11-dione]	0.98 µM	–	1.52 µM	4.36 µM	5.12 µM	8.9 µM
N#Cc1cccc(N2Cc3ccccc3OC3=C2C(=O)c2c(O)ccc(O)c2C3=O)c1 [Compound 9, 3-(7,10-dihydroxy-6,11-dioxo-6,11-dihydrobenzo[f]naphtho[2,3-b][1,4]oxazepin-12(13H)-yl)benzonitrile]	0.08 µM	–	0.38 µM	0.46 µM	1.15 µM	2.53 µM
NC(=O)c1ccc(N2Cc3ccccc3OC3=C2C(=O)c2c(O)ccc(O)c2C3=O)cc1 [Compound 10, 4-(7,10-dihydroxy-6,11-dioxo-6,11-dihydrobenzo[f]naphtho[2,3-b][1,4]oxazepin-12(13H)-yl)benzamide]	0.09 µM	–	0.63 µM	0.36 µM	1.85 µM	6.18 µM
COc1ccc2c(c1)OC1=C(C(=O)c3c(O)ccc(O)c3C1=O)N(C(=O)c1ccc(C#N)cc1)C2 [Compound 13]	0.32 µM	–	0.78 µM	0.46 µM	2.75 µM	3.72 µM
NC(=O)c1ccc(N2Cc3ccccc3OC3=C2C(=O)c2ccccc2C3=O)cc1 [Compound 17, 4-(6,11-dioxo-6,11-dihydrobenzo[f]naphtho[2,3-b][1,4]oxazepin-12(13H)-yl)benzamide]	0.65 µM	–	–	–	5.91 µM	5.77 µM
NS(=O)(=O)c1ccc(N2Cc3ccccc3OC3=C2C(=O)c2ccccc2C3=O)cc1 [Compound 19]	1.39 µM	1 µM	–	–	7.9 µM	8.36 µM
N#Cc1cccc(N2Cc3cc(Cl)ccc3OC3=C2C(=O)c2c(O)ccc(O)c2C3=O)c1 [Compound 43]	0.76 µM	–	0.81 µM	0.74 µM	1.3 µM	–
NC(=O)c1cccc(N2Cc3cc(Cl)ccc3OC3=C2C(=O)c2c(O)ccc(O)c2C3=O)c1 [Compound 44]	0.06 µM	–	0.73 µM	0.32 µM	0.97 µM	–
O=C1C2=C(C(=O)c3c(O)ccc(O)c31)N(c1ccccc1)Cc1ccccc1O2 [Compound 45, 7,10-dihydroxy-12-phenyl-12,13-dihydrobenzo[f]naphtho[2,3-b][1,4]oxazepine-6,11-dione]	0.09 µM	0.09 µM	0.13 µM	–	–	0.57 µM
CN(CCO)c1ccc(N2Cc3ccccc3OC3=C2C(=O)c2ccccc2C3=O)cn1 [Compound 49]	–	1.22 µM	2.63 µM	3.43 µM	–	–
NC(=O)c1ccc(N2Cc3cc(F)ccc3OC3=C2C(=O)c2c(O)ccc(O)c2C3=O)cc1 [Compound 55]	0.33 µM	–	3.35 µM	0.89 µM	3.45 µM	–
COc1cccc2c1OC1=C(C(=O)c3c(O)ccc(O)c3C1=O)N(c1ccc(C(N)=O)cc1)C2 [Compound 56]	0.19 µM	–	0.4 µM	–	3.04 µM	7.22 µM
CN(CCO)c1ccc(N2Cc3ccccc3OC3=C2C(=O)c2c(O)ccc(O)c2C3=O)cn1 [Compound 61]	0.16 µM	0.1 µM	0.41 µM	–	–	0.92 µM
CCOC(=O)c1ccc2c(c1)CN(c1ccccc1)C1=C(O2)C(=O)c2c(O)ccc(O)c2C1=O [Compound 64]	1.3 µM	5.89 µM	–	–	–	–
COc1ccc(O)c2c1C(=O)C1=C(C2=O)N(c2cccc(C#N)c2)Cc2ccccc2O1 [Compound 66]	–	0.05 µM	1.21 µM	–	2.34 µM	–
CN(C)CCNc1ccc(N2Cc3ccccc3OC3=C2C(=O)c2ccccc2C3=O)cn1 [Compound 73]	–	–	1.64 µM	1.7 µM	2.27 µM	2.7 µM

SMILES	IC50 (K562)	IC50 (HEL 92.1.7)	IC50 (MDA-MB-231)	IC50 (PANC-1)	IC50 (MCF-7)	IC50 (DU-145)
N#Cc1ccc(N2Cc3ccccc3OC3=C2C(=O)c2cccc(O)c2C3=O)cc1 [Compound 75]	–	–	2.7 µM	5.49 µM	2.36 µM	3.89 µM
O=C1C2=C(Oc3ccccc3CN2c2cccnc2)C(=O)c2c(O)cccc21 [Compound 76]	–	–	1.8 µM	1.86 µM	2 µM	2.3 µM
CC(=O)Oc1ccc(OC(C)=O)c2c1C(=O)C1=C(C2=O)N(c2cccc(C#N)c2)Cc2ccccc2O1 [Compound 82, 12-(3-cyanophenyl)-6,11-dioxo-6,11,12,13-tetrahydrobenzo[f]naphtho[2,3-b][1,4] oxazepine-7,10-diyl diacetate]	–	0.18 µM	0.8 µM	–	–	–
COc1ccc(O)c2c1C(=O)C1=C(Oc3ccccc3CN1c1ccccc1)C2=O [Compound 84]	–	3.71 µM	1.18 µM	–	3.98 µM	–
COc1ccc(OC)c2c1C(=O)C1=C(C2=O)N(c2cccnc2)Cc2ccccc2O1 [Compound 85, 7,10-dimethoxy-12-(pyridin-3-yl)-12,13-dihydrobenzo[f]naphtho[2,3-b][1,4]oxazepine-6,11-dione]	0.38 µM	0.33 µM	1.03 µM	1.78 µM	2.57 µM	–
COc1ccc(OC)c2c1C(=O)C1=C(C2=O)N(c2ccc(N3CCOCC3)nc2)Cc2ccccc2O1 [Compound 86]	–	0.59 µM	1.28 µM	3.89 µM	–	–
CC(=O)Oc1ccc(OC(C)=O)c2c1C(=O)C1=C(C2=O)N(c2ccccc2)Cc2ccccc2O1 [Compound 87, 6,11-dioxo-12-phenyl-6,11,12,13-tetrahydrobenzo[f]naphtho[2,3-b][1,4]oxazepine-7,10-diyl diacetate]	–	0.08 µM	0.15 µM	–	–	–
CC(=O)Oc1ccc(OC(C)=O)c2c1C(=O)C1=C(C2=O)N(c2cccc(C(N)=O)c2)Cc2ccccc2O1 [Compound 92, 12-(3-carbamoylphenyl)-6,11-dioxo-6,11,12,13-tetrahydrobenzo[f]naphtho[2,3-b][1,4] oxazepine-7,10-diyl diacetate]	–	0.12 µM	0.15 µM	–	–	–
CN(C)c1ccc(N2Cc3ccccc3OC3=C2C(=O)c2ccccc2C3=O)cn1 [Compound 98]	–	–	2.17 µM	2.94 µM	3.54 µM	4.7 µM
O=C1C2=C(C(=O)c3ccccc31)N(c1ccc(N3CCOCC3)nc1)Cc1ccccc1O2 [Compound 99]	–	–	2.09 µM	2.61 µM	2.28 µM	4.3 µM
CN1CCN(c2ccc(N3Cc4ccccc4OC4=C3C(=O)c3ccccc3C4=O)cn2)CC1 [Compound 100, 12-(6-(4-methylpiperazin-1-yl)pyridin-3-yl)-12,13-dihydrobenzo[f]naphtho [2,3-b][1,4]oxazepine-6,11-dione]	–	–	1.63 µM	1.8 µM	1.95 µM	3.4 µM
COC(=O)CNC(=O)c1ccc(N2Cc3ccccc3OC3=C2C(=O)c2c(O)ccc(O)c2C3=O)cc1 [Compound 102, methyl (4-(7,10-dihydroxy-6,11-dioxo-6,11-dihydrobenzo[f]naphtho[2,3-b][1,4]oxazepin-12(13H)-yl)benzoyl)glycinate]	0.42 µM	–	0.17 µM	–	–	1 µM
CN(C)c1ccc(N2Cc3ccccc3OC3=C2C(=O)c2cccc(O)c2C3=O)cn1 [Compound 103]	–	–	1.4 µM	1.41 µM	1.74 µM	1.8 µM
O=C1C2=C(Oc3ccccc3CN2c2ccc(N3CCOCC3)nc2)C(=O)c2c(O)cccc21 [Compound 104]	–	–	1.02 µM	1.23 µM	1.82 µM	1.6 µM
CN(C)CCNc1ccc(N2Cc3ccccc3OC3=C2C(=O)c2cccc(O)c2C3=O)cn1 [Compound 105]	–	–	0.71 µM	0.69 µM	1.99 µM	1.51 µM
CN1CCN(c2ccc(N3Cc4ccccc4OC4=C3C(=O)c3cccc(O)c3C4=O)cn2)CC1 [Compound 106]	–	–	0.74 µM	0.71 µM	–	–
